Where “and” joins values, the source holds several entries; their conditions need not be identical. Identical values can stand only once.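 Compound exposure: 48 hours, 5 concentrations, 96-well plates. At the GI50, growth is halved.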 Calls of active or inactive are those of the source. Rule as the data show it: active = GI50 up to about 1.1 µM and inactive = higher.
Experiments:
Assay in all cases: NCI-60 cell line screen, 48 h
[1] = test system: TK-10
[2] = test system: NCI-H522
[3] = test system: UACC-62
[4] = test system: SF-268
[5] = test system: COLO 205
[6] = test system: RPMI-8226
[7] = test system: 786-0
[8] = test system: HOP-62
[9] = test system: DU-145
[10] = test system: LOX IMVI
[11] = test system: SK-OV-3
[12] = test system: A549
[13] = test system: K562
[14] = test system: Hs-578T
[15] = test system: MCF7
[16] = test system: SF-539
[17] = test system: HT-29
[18] = test system: SK-MEL-5
[19] = test system: HCT-116
[20] = test system: HOP-92

Measured: GI50

Cc1cc(-c2cc(C)c(O)c(C(C)(C)C)c2)cc(C(C)(C)C)c1O
inactive: [1] 11.2 µM and 12.1 µM | [2] 10.5 µM and 12.3 µM | [3] 13.3 µM and 13.6 µM | [4] 13.9 µM and 11.7 µM | [5] 11.1 µM and 13.6 µM | [6] 18.9 µM and 12.9 µM | [7] 10.7 µM and 13.1 µM | [8] 17.8 µM and 17.3 µM | [9] 15.2 µM and 11.8 µM | [10] 10.1 µM and 11.5 µM | [11] 16.7 µM and 14.2 µM | [12] 9.27 µM and 9.59 µM | [13] 9.25 µM and 7.69 µM | [14] 12.8 µM and 15.3 µM | [15] 5.02 µM and 6.62 µM | [16] 15 µM and 18.5 µM | [17] 3.24 µM and 3.82 µM | [18] 10.6 µM and 14.7 µM | [19] 6.21 µM and 10.9 µM

CC(=O)O[C@H]1CC[C@H]2[C@@H]3CCc4cc(O)c(I)cc4[C@H]3CC[C@]12C
inactive: [1] 19.3 µM | [2] 11.8 µM | [4] 13.8 µM | [5] 18.1 µM | [6] 12.4 µM | [7] 14.1 µM | [9] 14.8 µM | [10] 15.1 µM | [11] 15.7 µM | [12] 15.3 µM | [13] 10.6 µM | [14] 14.9 µM | [15] 17 µM | [16] 15.2 µM | [17] 17.7 µM | [18] 3.83 µM

Cc1ccc(-n2nnc(C#N)c2O)cc1
inactive: [1] > 100 µM | [2] > 100 µM | [3] > 100 µM | [4] > 100 µM | [5] > 100 µM | [6] > 100 µM | [7] > 100 µM | [8] > 100 µM | [9] > 100 µM | [11] > 100 µM | [12] > 100 µM | [13] > 100 µM | [14] > 100 µM | [15] > 100 µM | [17] > 100 µM | [18] > 100 µM | [19] > 100 µM

CCc1nn(S(=O)(=O)c2ccc(C)cc2)c2c1CS(=O)(=O)CC2
inactive: [1] > 100 µM | [3] > 100 µM | [4] 37.1 µM | [5] > 100 µM | [6] > 100 µM | [7] > 100 µM | [8] 84.1 µM | [9] > 100 µM | [11] 69.3 µM | [12] > 100 µM | [13] > 100 µM | [14] 28 µM | [15] > 100 µM | [16] 91.4 µM | [17] > 100 µM | [18] > 100 µM | [19] > 100 µM

COC1=C(OC)C(=O)C(C/C=C/c2c(Cl)nc3sccn23)=C(C)C1=O
inactive: [1] 15 µM | [2] 15.1 µM | [3] 14.5 µM | [4] 16 µM | [5] 16.9 µM | [6] 4.35 µM | [7] 21.5 µM | [8] 16.8 µM | [9] 18.5 µM | [10] 2.24 µM | [11] 16.7 µM | [12] 11.2 µM | [13] 19.8 µM | [14] 20.5 µM | [15] 5.19 µM | [16] 17.2 µM | [17] 20.7 µM | [18] 1.32 µM | [19] 12.8 µM

CC(C)=c1sc(=C(C)C)c2c1=NC(C)(C)N=2
inactive: [1] > 100 µM | [2] 32.9 µM | [3] 37.4 µM | [4] 64.9 µM | [5] 87.3 µM | [6] 37.2 µM | [7] > 100 µM | [8] > 100 µM | [9] 58.3 µM | [10] 27 µM | [11] > 100 µM | [12] 51.5 µM | [14] 53.6 µM | [15] 48.3 µM | [16] > 100 µM | [17] 74.6 µM | [18] 79.6 µM | [19] 50.5 µM

COC(=O)C1=C(O)C(C(=O)OC)[C@]2(O)[C@H](C(=O)OC)[C@H]1C[C@@H](c1ccccc1OC)[C@H]2C(=O)OC (stereo not given in full)
inactive: [1] 14.1 µM | [2] 1.84 µM | [3] 4.24 µM | [4] 4.53 µM | [5] 4.55 µM | [6] 2.17 µM | [7] 7.76 µM | [8] 12.3 µM | [9] 5.07 µM | [20] 2.34 µM | [10] 2.79 µM | [11] 4.33 µM | [12] 3.85 µM | [13] 4.38 µM | [14] 2.49 µM | [16] 2.71 µM | [17] 4.82 µM | [18] 3.64 µM | [19] 3.65 µM

CC(C)Oc1ccc(CNC2=NCCO2)c2ccccc12
inactive: [1] 16.3 µM | [3] 15.3 µM | [4] 22.3 µM | [5] 16.4 µM | [6] 9.77 µM | [7] 13.6 µM | [8] 15.6 µM | [9] 18.2 µM | [11] 16.3 µM | [12] 15.4 µM | [13] 4.57 µM | [14] 10.3 µM | [15] 14.1 µM | [16] 9.66 µM | [17] 4.01 µM | [18] 12.9 µM | [19] 12.6 µM

C=C(CCOC)CCC1CCCCC(=C)C1=O (stereo not given)
inactive: [2] > 100 µM | [3] > 100 µM | [4] > 100 µM | [5] > 100 µM | [6] > 100 µM | [7] > 100 µM | [8] > 100 µM | [9] > 100 µM | [10] > 100 µM | [11] > 100 µM | [12] > 100 µM | [13] > 100 µM | [14] > 100 µM | [15] > 100 µM | [17] > 100 µM | [18] > 100 µM | [19] > 100 µM

CCOC(=O)/C=C(/C=C\COC1CCCCO1)c1ccccc1 (stereo not given)
inactive: [1] > 100 µM | [2] 21.7 µM | [3] 24.5 µM | [4] 32.1 µM | [5] > 100 µM | [6] 27.5 µM | [7] 24.7 µM | [8] > 100 µM | [9] 40 µM | [10] 15.4 µM | [11] 33.6 µM | [12] 38.4 µM | [13] 28.5 µM | [14] 22.3 µM | [15] 29 µM | [17] 15.8 µM | [18] 35 µM | [19] 16 µM

CC(=O)Nc1ccc(C(=O)NN2C(=O)CSC2c2ccccc2)cc1 (stereo not given)
inactive: [1] > 100 µM | [3] > 100 µM | [4] > 100 µM | [5] > 100 µM | [6] > 100 µM | [7] > 100 µM | [8] > 100 µM | [9] > 100 µM | [20] > 100 µM | [11] > 100 µM | [12] > 100 µM | [13] > 100 µM | [14] > 100 µM | [15] > 100 µM | [16] > 100 µM | [17] > 100 µM | [18] > 100 µM | [19] > 100 µM
